In PMC10689081 (BMB Reports, 2023):
Entries after “also recorded” stand apart in the source; their conditions may differ.

Columns and labels:
[1] = test system: SARS-CoV-2 Mpro; type: biochemical
[2] = Solubility in water; type: physicochemical; conditions: Supplementary Fig. 4
[3] = test system: Mpro dimer; set-up: species or system SARS-CoV-2
[4] = Superose-12 10/300, 0.5 ml/min, buffer D pH 7.5, 298 K (Fig. 1B)

Sequence: SGFRKMAFPS [N10]
- inhibition of Mpro activity (in words) ([1]; N10, 1 μM Mpro, 0-500 μM N10, 10 μM substrate, 298 K): also shows inhibitory activity; also recorded: can inhibit the Mpro activity; also recorded: could inhibit the proteolytic activity of Mpro
- inhibitory activity of N10 compared with GC376 (in words) ([1]; sub-millimolar concentrations (Fig. 2B)): weaker than that of GC376
- solubility in water [2]: soluble in water
- disruption of dimer conformation (conclusion in words) [3]: disrupted the dimer conformation
- shift of Mpro dimer peak on adding N10 ([3]; Superose-12 10/300, 0.5 ml/min, 50 mM Tris-HCl pH 7.5, 1 M NaCl, 10% Glycerol, 1 mM DTT, 298 K (Fig. 1B)): shifted the Mpro dimer peak into a smaller size; also recorded: from dimer to a smaller size, a presumably monomer
- height of the delayed shifted peak compared to the original peak [3, 4]: half-size in height
- shape of the peak of Mpro with N10 [3, 4]: overlapped shape of two peaks of primary and shoulder; also recorded: overlapped uneven two peaks of primary and shoulder
